pIC50: −log10 of the molar value.
Legend:
KEAP1 C151 = target: T1, KEAP1 C151 (Homo sapiens, UniProt Q14145); experiment: Nrf2 TMT measurement: in vitro TE50 for KEAP1 C151 (IA-DTB competition, targeted TMT mass spectrometry) in MDA-MB-468 cell lysate; assay type: binding; details: in vitro target engagement of KEAP1 C151, targeted TMT, read-out: KEAP1_C151 TE50
T1 construct: treating 500 μg of cell lysate generated from MDA-MB-468 breast cancer cells with DMSO or compound; endogenous in cells; host or cells: MDA-MB-468 breast cancer cell lysate
T1 sequence (Q14145 whole entry): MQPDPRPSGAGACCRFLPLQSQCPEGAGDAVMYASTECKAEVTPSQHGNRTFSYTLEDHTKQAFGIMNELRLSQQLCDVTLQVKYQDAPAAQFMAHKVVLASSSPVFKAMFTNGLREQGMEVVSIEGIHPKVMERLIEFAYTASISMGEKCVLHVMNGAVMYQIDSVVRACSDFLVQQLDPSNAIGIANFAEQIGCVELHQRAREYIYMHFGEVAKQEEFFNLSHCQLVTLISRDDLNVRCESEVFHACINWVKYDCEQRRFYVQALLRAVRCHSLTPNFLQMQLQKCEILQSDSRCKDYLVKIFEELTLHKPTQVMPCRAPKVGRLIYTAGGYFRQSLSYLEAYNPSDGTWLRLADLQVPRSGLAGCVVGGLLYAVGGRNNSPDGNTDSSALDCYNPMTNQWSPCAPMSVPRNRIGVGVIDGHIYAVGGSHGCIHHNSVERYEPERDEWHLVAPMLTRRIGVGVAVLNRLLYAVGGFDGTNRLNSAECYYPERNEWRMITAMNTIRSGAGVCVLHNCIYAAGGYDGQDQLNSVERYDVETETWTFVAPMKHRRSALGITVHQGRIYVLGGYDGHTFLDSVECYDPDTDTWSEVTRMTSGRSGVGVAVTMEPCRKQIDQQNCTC
How it was run: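 Occupancy of KEAP1 C151 measured as loss of IA-DTB labeling (200 μM, 1 h, room temperature) after 1 h compound pre-treatment of MDA-MB-468 cell lysate.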

Nrf2 = Nrf2 antagonism assay: ARE luciferase reporter in KYSE-70 cells; assay type: cell-based; details: positive Imax corresponds to Nrf2 antagonism; for Emax: Homo sapiens, KYSE-70, KYSE-70 cells, read-out: KYSE70 Cellular ARE Luciferase Imax (%); for KYSE70 Cellular ARE Luciferase Imax (%): KYSE-70 cells
How it was run: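 Dose-response curves give IC50 and Imax, with positive Imax read as Nrf2 antagonism, i.e. reduced luciferase signal. Reporter cells are Nrf2-high KYSE-70 (Nrf2 W24C mutant) bearing ARE-controlled luciferase. Antagonists are proposed to act at KEAP1 C151, speeding Nrf2 degradation.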

Row | SMILES | pIC50 (KEAP1 C151) | Emax (Nrf2) | KYSE70 Cellular ARE Luciferase Imax (%) (Nrf2)
1 | C=CC(=O)N1CCS(=O)(=O)CC1c1cc(Cl)cc(-c2ncc(N)cn2)c1 (single isomer, unassigned) [Compound 207, 1-(3-(3-(5-aminopyrimidin-2-yl)-5-chlorophenyl)-1,1-dioxidothiomorpholino)prop-2-en-1-one] | 7.35 | 90% | 
2 | C=CC(=O)N1CCS(=O)(=O)CC1c1cc(Cl)cc(-c2nccc(N)n2)c1 (single isomer, unassigned) [Compound 209, 1-(3-(3-(4-aminopyrimidin-2-yl)-5-chlorophenyl)-1,1-dioxidothiomorpholino)prop-2-en-1-one] | 7.09 | 93% | 
3 | C=CC(=O)N1CCOC[C@H]1c1cc(Cl)cc(-c2nc(O)n[nH]2)c1 (single isomer, unassigned) [Compound 210] | 6.42 | 55% | 
4 | C=CC(=O)N1CCOC[C@H]1c1cc(Cl)cc(-n2cc(N)cn2)c1 (single isomer, unassigned) [Compound 211] | 7.07 | 57% | 
5 | C=CC(=O)N1CCOC[C@H]1c1cc(Cl)cc(-c2cc(N)on2)c1 (single isomer, unassigned) [Compound 212] | 7.16 | 90% | 
6 | C=CC(=O)N1CCOC[C@H]1c1cc(Cl)cc(-c2cnc(=O)n(C)c2)c1 (single isomer, unassigned) [Compound 213] | 6.33 | 75% | 
7 | C=CC(=O)N1CCOC[C@H]1c1cc(Cl)cc(-c2ncnc(NC)n2)c1 (single isomer, unassigned) [Compound 214] | 7.00 | 93% | 
8 | C=CC(=O)N1CCOC[C@H]1c1cc(Cl)cc(C2CNC(=O)N(C)C2)c1 (single isomer, unassigned) [Compound 216] | 6.85 | 86% | 
9 | C=CC(=O)N1CCOC[C@H]1c1cc(Cl)cc(C2CNC(=O)N(C)C2)c1 (single isomer, unassigned) [Compound 217] | 7.52 |  | 78%
10 | C=CC(=O)N1CCOC[C@H]1c1cc(Cl)cc(-c2nc(N)nc(NC)n2)c1 (single isomer, unassigned) [Compound 218] | 7.80 | 92% | 
11 | C=CC(=O)N1CCOC[C@H]1c1cc(Cl)cc(-c2ncc(C(N)=O)o2)c1 (single isomer, unassigned) [Compound 220] | 7.31 | 73% | 
12 | C=CC(=O)N1CCOC[C@H]1c1cc(Cl)cc(-c2ncnc(NCCCN(C)C)n2)c1 (single isomer, unassigned) [Compound 221] | 6.55 | 78% | 
13 | C=CC(=O)N1CCOC[C@H]1c1cc(Cl)cc(C2CNC(=O)NC2)c1 (single isomer, unassigned) [Compound 222] | 6.48 | 85% | 
14 | C=CC(=O)N1[C@H](c2cc(Cl)nc(-c3cc(C(N)=O)ncn3)c2)COC[C@H]1C(F)F (single isomer, unassigned) [Compound 223] | 8.46 | 94% | 
15 | C=CC(=O)N1CCOC[C@H]1c1cc(Cl)cc(-c2nc(C(N)=O)co2)c1 (single isomer, unassigned) [Compound 224] | 6.77 | 90% | 
16 | C=CC(=O)N1CCOC[C@H]1c1cc(Cl)cc(C2CNC(=S)N(C)C2)c1 (single isomer, unassigned) [Compound 226] | 6.70 | 85% | 
17 | C=CC(=O)N1CCOC[C@H]1c1cc(Cl)cc(C2CNC(=S)N(C)C2)c1 (single isomer, unassigned) [Compound 227] | 7.02 |  | 90%
18 | C=CC(=O)N1CCOC[C@H]1c1cc(Cl)cc(N2CCNC(=O)C2)c1 (single isomer, unassigned) [Compound 228] | 6.89 | 79% | 
19 | C=CC(=O)N1CCOC[C@H]1c1cc(Cl)cc(-c2nc(N)nc(NCCCN(C)C)n2)c1 (single isomer, unassigned) [Compound 229] | 6.25 | 92% | 
20 | C=CC(=O)N1CCOC[C@H]1c1cc(Cl)cc(N2CCC(N)C2=O)c1 (single isomer, unassigned) [Compound 230] | 6.09 | 51% | 
21 | C=CC(=O)N1CCOC[C@H]1c1cc(Cl)cc(C2CNC(=O)CO2)c1 (single isomer, unassigned) [Compound 231] | 6.49 |  | 55%
22 | C=CC(=O)N1CCOC[C@H]1c1cc(Cl)cc(C2CNC(=O)CO2)c1 (single isomer, unassigned) [Compound 232] | 6.85 |  | 84%

Row | SMILES | pIC50 (KEAP1 C151) | Emax (Nrf2) | KYSE70 Cellular ARE Luciferase Imax (%) (Nrf2)
23 | C=CC(=O)N1CCOC[C@H]1c1cc(Cl)cc(C2CNC(=S)NC2)c1 (single isomer, unassigned) [Compound 233] | 6.18 | 83% | 
24 | C=CC(=O)N1CCOC[C@H]1c1cc(Cl)cc(-c2cnc(N)o2)c1 (single isomer, unassigned) [Compound 234] | 6.66 | 89% | 
25 | C=CC(=O)N1CCOC[C@H]1c1cc(Cl)cc(-c2cc(N)[nH]n2)c1 (single isomer, unassigned) [Compound 235] | 6.96 | 86% | 
26 | C=CC(=O)N1C[C@@H](C)N(C(C)=O)C[C@@H]1c1cc(Cl)cc(-c2ncc(N)cn2)c1 (single isomer, unassigned) [Compound 236] | 7.60 |  | 87%
27 | C=CC(=O)N1C[C@@H](C)N(C(C)=O)C[C@@H]1c1cc(Cl)cc(-c2ncc(N)cn2)c1 (single isomer, unassigned) [Compound 237] | 6.85 |  | 50%
28 | C=CC(=O)N1CC(F)(F)CCC1c1cc(Cl)cc(-c2ncc(N)cn2)c1 (single isomer, unassigned) [Compound 238, 1-(2-(3-(5-aminopyrimidin-2-yl)-5-chlorophenyl)-5,5-difluoropiperidin-1-yl)prop-2-en-1-one] | 7.47 | 82% | 
29 | C=CC(=O)N1CCCCC1c1cc(Cl)cc(-c2ncc(N)cn2)c1 (single isomer, unassigned) [Compound 239, 1-(2-(3-(5-aminopyrimidin-2-yl)-5-chlorophenyl)piperidin-1-yl)prop-2-en-1-one] | 6.66 | 83% | 
30 | C=CC(=O)N1CCOC[C@H]1c1cc(Cl)cc(C2CNC(=S)CO2)c1 (single isomer, unassigned) [Compound 240] | 6.82 |  | 61%
31 | C=CC(=O)N1CCOC[C@H]1c1cc(Cl)cc(C2CNC(=S)CO2)c1 (single isomer, unassigned) [Compound 241] | 6.77 |  | 87%
32 | C=CC(=O)N1CCOC[C@H]1c1cc(Cl)cc(C2CCNC(=O)N2)c1 (single isomer, unassigned) [Compound 242] | 6.60 | 59% | 
33 | C=CC(=O)N1C[C@@H](C)N(C(=O)C2CC2)C[C@@H]1c1cc(Cl)cc(-c2ncc(N)cn2)c1 (single isomer, unassigned) [Compound 243] | 7.66 | 88% | 
34 | C=CC(=O)N1CCOC[C@H]1c1cc(Cl)cc(N2CCN=C(N)C2)c1 (single isomer, unassigned) [Compound 244] | 6.82 | 81% | 
35 | C=CC(=O)N1C[C@@H](C)N(C(=O)C2CC2)C[C@H]1c1cc(Cl)cc(-c2ncc(N)cn2)c1 (single isomer, unassigned) [Compound 245] | 7.05 | 53% | 
36 | C=CC(=O)N1CC(C)(C)S(=O)(=O)CC1c1cc(Cl)cc(-c2nccc(N)n2)c1 (single isomer, unassigned) [Compound 246, 1-(5-(3-(4-aminopyrimidin-2-yl)-5-chlorophenyl)-2,2-dimethyl-1,1-dioxidothiomorpholino)prop-2-en-1-one] | 7.37 | 90% | 
37 | C=CC(=O)N1CCC(F)(F)CC1c1cc(Cl)cc(-c2ncc(N)cn2)c1 (single isomer, unassigned) [Compound 247, 1-(2-(3-(5-aminopyrimidin-2-yl)-5-chlorophenyl)-4,4-difluoropiperidin-1-yl)prop-2-en-1-one] | 7.80 | 91% | 
38 | C=CC(=O)N1CCOC[C@H]1c1cc(Cl)cc(-c2ncc(NC(C)=O)cn2)c1 (single isomer, unassigned) [Compound 248] | 8.00 | 89% | 
39 | C=CC(=O)N1CC2(CC2)S(=O)(=O)CC1c1cc(Cl)cc(-c2nccc(N)n2)c1 (single isomer, unassigned) [Compound 249, 1-(6-(3-(4-aminopyrimidin-2-yl)-5-chlorophenyl)-4,4-dioxido-4-thin-7-azaspiro[2.5]octan-7-yl)prop-2-en-1-one] | 8.28 | 89% | 
40 | C=CC(=O)N1CCOC[C@H]1c1cc(Cl)cc(-c2cncc(N)n2)c1 (single isomer, unassigned) [Compound 250] | 7.44 | 92% | 
41 | C=CC(=O)N1CCOC[C@H]1c1cc(Cl)cc(-c2cnc(N)cn2)c1 (single isomer, unassigned) [Compound 251] | 7.77 | 93% | 
42 | C=CC(=O)N1CCOC[C@H]1c1cc(Cl)cc(-c2ncc(N)c(OC)n2)c1 (single isomer, unassigned) [Compound 254] | 7.07 | 92% | 
43 | C=CC(=O)N1CCOC[C@H]1c1cc(Cl)cc(-c2cnc(N)c(OC)n2)c1 (single isomer, unassigned) [Compound 255] | 7.30 | 93% | 
44 | C=CC(=O)N1CCOC[C@H]1c1cc(Cl)cc(-c2nccc(NC(C)=O)n2)c1 (single isomer, unassigned) [Compound 256] | 7.07 | 63% | 

From patent US20260207621A1 (Vividion Therapeutics, Inc., priority 2022, published 2026)
